Data: article PMC6757289, “Design and Characterization of SGK3-PROTAC1, an Isoform Specific SGK3 Kinase PROTAC Degrader” (ACS Chemical Biology, 2019)
Where two headings read alike, the source gives them in different places.

Key:
[1] = tested on: phosphorylation of NDRG1 at Thr346; assay: NDRG1 phosphorylation in HEK293 cells, immunoblot; format: cell-based; conditions: HEK293, 8 h; for pNDRG1 phosphorylation: basal, no inhibition of Akt
Method: Figure 3 Characterization of cellular activities of SGK3-PROTAC1 and cisSGK3-PROTAC1. (A) HEK293 cells were first treated for 8 h with 0.03–3 μM SGK3-PROTAC1 and cisSGK3-PROTAC1. One hour before lysis, cells were treated with 3 μM AZD5363. Lysates were subjected to immunoblot analysis with the indicated antibodies. […] Lysates were subjected to immunoblot analysis with the indicated antibodies. (C) HEK293 cells were treated for up to 48 h with SGK3-PROTAC1 (0.3 μM), and lysates were analyzed by immunoblot analysis using the indicated antibodies. (D) HEK293 cells were treated for 24 h with SGK3-PROTAC1. Cells were washed three times with DMEM to wash out the compound, and recovery of SGK3 expression protein was analyzed by immunoblot analysis. (E–G) As in A except that CAMA-1 (E), ZR-75-1 (F), and JIMT-1 (G) cells were employed rather than HEK293 cells.
To study the impact of SGK3-PROTAC1 on phosphorylation of a physiological substrate, we monitored phosphorylation of NDRG1 at Thr346.[37] This site is also phosphorylated by Akt; therefore we treated cells with increasing doses of SGK3-PROTAC1 and cisSGK3-PROTAC1 for 8 h, with the addition of an Akt inhibitor (3 μM AZD5363) 1 h before lysis, to remove the impact of Akt phosphorylation of NDRG1. […] Concentrations of cisSGK3-PROTAC1 of above 1 μM were required to lower NDRG1 phosphorylation. […] This is consistent with previous work in HEK293 cells showing that inhibition of both Akt and SGK3 is required to block NDRG1 phosphorylation.[8],[37]
All cell treatments were carried out as described in figure legends, to a final DMSO concentration of 0.1% (v/v). Lysates were quantified. Immunoblotting was performed using standard procedures, described in brief below. Lysate concentration was quantified by Bradford Assay, and 10 μg of lysate was loaded in the LDS sample buffer for SDS-PAGE electrophoresis on Novex 4–12% Bis–Tris gels. Proteins were electrophoretically transferred onto nitrocellulose membranes (Amersham Protran 0.45 μm NC; GE Healthcare) at 80 V for 80 min on ice in transfer buffer. Transferred membranes were blocked with 5% (w/v) nonfat dry milk dissolved in TBS-T [20 mM Tris/HCl, pH 7.5, 150 mM NaCl, and 0.1% (v/v) Tween 20] at RT for 30 min, before incubation with the primary antibody overnight at 4 °C. The signal was produced with near-infrared secondary antibodies and detected using a Licor Biosciences Odyssey System, and the signal was quantified in Image Studio Lite.

MAP4K3 = molecular target: T1, MAP4K3 (Homo sapiens, UniProt Q8IVH8); assay: kinase profiling panel; format: biochemical; conditions: read-out: % Activity Remaining
T1 sequence (Q8IVH8 1-894): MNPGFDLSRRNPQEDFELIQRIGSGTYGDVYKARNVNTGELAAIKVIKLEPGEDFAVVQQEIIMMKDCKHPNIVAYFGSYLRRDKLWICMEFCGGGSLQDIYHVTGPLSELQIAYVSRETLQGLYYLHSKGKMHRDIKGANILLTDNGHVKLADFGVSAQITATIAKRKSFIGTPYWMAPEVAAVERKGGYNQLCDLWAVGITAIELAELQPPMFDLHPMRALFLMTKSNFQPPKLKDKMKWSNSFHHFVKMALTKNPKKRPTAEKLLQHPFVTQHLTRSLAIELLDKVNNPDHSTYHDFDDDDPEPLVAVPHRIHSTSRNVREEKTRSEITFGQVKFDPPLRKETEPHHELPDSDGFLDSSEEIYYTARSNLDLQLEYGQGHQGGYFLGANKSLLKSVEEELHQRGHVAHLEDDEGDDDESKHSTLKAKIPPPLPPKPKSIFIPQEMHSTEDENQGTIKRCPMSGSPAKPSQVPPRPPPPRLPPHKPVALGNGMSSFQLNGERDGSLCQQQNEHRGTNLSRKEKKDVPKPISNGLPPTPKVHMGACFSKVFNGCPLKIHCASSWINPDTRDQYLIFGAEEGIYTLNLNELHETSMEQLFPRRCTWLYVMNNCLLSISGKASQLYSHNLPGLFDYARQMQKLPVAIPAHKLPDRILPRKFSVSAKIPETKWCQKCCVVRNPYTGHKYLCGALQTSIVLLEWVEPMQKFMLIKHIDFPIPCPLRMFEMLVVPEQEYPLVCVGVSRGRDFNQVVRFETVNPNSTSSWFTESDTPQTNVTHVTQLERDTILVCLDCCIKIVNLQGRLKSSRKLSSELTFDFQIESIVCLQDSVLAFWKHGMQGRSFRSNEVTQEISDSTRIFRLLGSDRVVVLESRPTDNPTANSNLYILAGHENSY
Text: (§1) Protein kinase profiling against a Dundee panel of 140 protein kinases was undertaken at the International Centre for Protein Kinase Profiling. The result for each kinase was presented as a mean kinase activity of the reaction taken in triplicate relative to a control sample treated with DMSO. Assay conditions and abbreviations are available at http://www.kinase-screen.mrc.ac.uk.

IRAK4 = molecular target: T2, IRAK4 (Homo sapiens, UniProt Q9NWZ3); assay: kinase profiling panel; format: biochemical; conditions: read-out: % Activity Remaining
T2 sequence (Q9NWZ3 1-460): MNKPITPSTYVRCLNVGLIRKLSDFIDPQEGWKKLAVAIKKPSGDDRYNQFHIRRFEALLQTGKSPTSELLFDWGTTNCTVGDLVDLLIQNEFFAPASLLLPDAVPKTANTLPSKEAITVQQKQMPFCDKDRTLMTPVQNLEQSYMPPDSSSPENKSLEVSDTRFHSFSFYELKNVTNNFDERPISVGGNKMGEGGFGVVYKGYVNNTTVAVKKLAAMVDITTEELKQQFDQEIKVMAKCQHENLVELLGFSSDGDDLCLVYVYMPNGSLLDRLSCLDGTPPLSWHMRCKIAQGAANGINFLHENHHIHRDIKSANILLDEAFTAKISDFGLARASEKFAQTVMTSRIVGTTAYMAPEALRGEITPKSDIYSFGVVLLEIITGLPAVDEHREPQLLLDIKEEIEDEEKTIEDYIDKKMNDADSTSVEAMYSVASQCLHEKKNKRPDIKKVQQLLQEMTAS
Text: as §1

MELK = MELK (Homo sapiens, UniProt Q14680); assay: kinase profiling panel; format: biochemical; conditions: read-out: % Activity Remaining
Text: as §1

[2] = 0.1 μM, 3 μM AZD5363 1 h before lysis
[3] = 0.3 μM SGK3-PROTAC1, 1 μM 14H, 1 μM 308-R
[4] = in the presence of 3 μM AZD5363, 0.3 μM SGK3-PROTAC1, 1 μM 14H, 1 μM 308-R

Sequence of MELK (Q14680 whole entry): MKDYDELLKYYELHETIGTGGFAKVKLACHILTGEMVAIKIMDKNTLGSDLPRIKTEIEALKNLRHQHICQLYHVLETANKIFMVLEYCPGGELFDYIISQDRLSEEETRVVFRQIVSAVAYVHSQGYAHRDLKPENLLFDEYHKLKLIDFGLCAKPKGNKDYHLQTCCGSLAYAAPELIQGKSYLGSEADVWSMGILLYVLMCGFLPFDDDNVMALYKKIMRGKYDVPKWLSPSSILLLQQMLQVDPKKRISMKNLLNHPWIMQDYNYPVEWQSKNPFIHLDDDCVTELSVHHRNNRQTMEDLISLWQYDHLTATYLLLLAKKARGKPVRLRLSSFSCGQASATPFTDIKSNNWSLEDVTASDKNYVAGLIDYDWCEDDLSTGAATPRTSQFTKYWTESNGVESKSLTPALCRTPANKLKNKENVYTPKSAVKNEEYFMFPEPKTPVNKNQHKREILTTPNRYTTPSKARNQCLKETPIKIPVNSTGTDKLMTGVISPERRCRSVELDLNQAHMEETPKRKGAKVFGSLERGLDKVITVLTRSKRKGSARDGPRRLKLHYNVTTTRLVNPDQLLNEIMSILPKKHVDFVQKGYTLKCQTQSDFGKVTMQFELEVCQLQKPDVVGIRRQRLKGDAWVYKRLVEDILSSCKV

Row | Structure (SMILES) | NDRG1 phosphorylation [1, 2] | pNDRG1 phosphorylation [1, 3] | NDRG1 phosphorylation [1, 4] | remaining activity at 1 µM (MAP4K3; 1 µM) [%] | remaining activity at 1 µM (IRAK4; 1 µM) [%] | remaining activity at 1 µM (MELK; 1 µM) [%] | remaining activity at 1 µM (MAP4K3) [%] | remaining activity at 1 µM (IRAK4) [%] | remaining activity at 1 µM (MELK) [%] | concentration required to lower NDRG1 phosphorylation ([1]; 3 μM AZD5363 1 h before lysis)
1 | Cc1ccc(F)c(S(=O)(=O)Nc2ccc(-c3nc(OC[C@H]4CN(CCCCCCOCCOCCOCC(=O)N[C@H](C(=O)N5C[C@H](O)C[C@H]5C(=O)NCc5ccc(-c6scnc6C)cc5)C(C)(C)C)CCO4)c4cn[nH]c4n3)cc2)c1 [SGK3-PROTAC1] | reduced NDRG1 phosphorylation | minimal effect | markedly suppressed | 99 | 114 | 91 |  |  |  | 
2 | COc1ccc(Cl)c(S(=O)(=O)Nc2ccc(-c3nc(OC[C@H]4CNCCO4)c4c(C)n[nH]c4n3)cc2)c1 [290-R, reference compound] |  |  |  |  |  |  | 2 | 74 | 11 | 
3 | Cc1ccc(F)c(S(=O)(=O)Nc2ccc(-c3nc(OC[C@H]4CN(CCCCCCOCCOCCOCC(=O)N[C@H](C(=O)N5C[C@@H](O)C[C@H]5C(=O)NCc5ccc(-c6scnc6C)cc5)C(C)(C)C)CCO4)c4cn[nH]c4n3)cc2)c1 [cisSGK3-PROTAC1] | no effect |  |  | 95 | 98 | 100 |  |  |  | above 1 μM
4 | Cc1ccc(F)c(S(=O)(=O)Nc2ccc(-c3nc(OC[C@H]4CNCCO4)c4cn[nH]c4n3)cc2)c1 [308-R, reference compound] |  | minimal effect | markedly suppressed |  |  |  | 8 | 105 | 19 | 
